Experiment [1] relates to mature hCOs. In words: mature hCO, cardiomyocyte proliferation (Ki-67 intensity, Ki-67+ α-actinin cardiomyocytes). The experiment is classed as cell-based, human. The protocol:
hCOs were cultured in CTRL medium for formation for 5 days and then either kept in CTRL medium culture or changed to maturation medium (Mills et al., 2017a) comprising DMEM without glucose, glutamine and phenol red (ThermoFisher Scientific) supplemented with 4% […](without insulin) (ThermoFisher Scientific), 1% GlutaMAX (ThermoFisher Scientific), 200 μM L-ascorbic acid 2-phosphate sesquimagnesium salt hydrate and 1% Penicillin/Streptomycin (ThermoFisher Scientific), 1 mmol/L glucose and 100 μmon palmitic acid (conjugated to bovine serum albumin within B27 by incubating for 2h at 37° C., Sigma) with changes every 2-3 days.
Whole-Mount Immunostaining hCOs were fixed for 60 min with 1% paraformaldehyde (Sigma) at room temperature and washed 3× with PBS, after which they were incubated with primary antibodies (see Star Methods Table) in Blocking Buffer, 5% FBS and 0.2% Triton-X-100 (Sigma) in PBS overnight at 4° C. Cells were then washed in Blocking Buffer 2× for 2 h and subsequently incubated with secondary antibodies (see Star Methods Table) and Hoechst33342 (1:1000) overnight at 4° C. They were washed in Blocking Buffer 2× for 2 h and imaged in situ or mounted on microscope slides using Fluoromount-G (Southern Biotech).
For screening hCOs were imaged using a Leica DMi8 high content imaging microscope for in situ imaging. Custom batch processing files were written in Matlab R2013a (Mathworks) to remove the background, calculate the image intensity, and export the batch data to an Excel (Microsoft) spreadsheet.
For more detailed images an Olympus IX81 confocal microscope was used for mounted hCO imaging. For cell cycle analysis experiments 3 random fields of view were imaged and manually quantified for proliferation. These were added together to calculate the percentage of hPSC-CM proliferation in each hCO.
Hits were next validated in mature hCOs using a targeted concentration range based on their active concentrations in the initial immature hCO screen (FIG. 3A). Proliferation markers were quantified using high magnification confocal imaging as we found flow cytometry to be inaccurate in hCO (data not shown). Compounds 3, 63 and 65 had no impact on contractile force (FIG. 3B) at concentrations of 3 μM, 0.3 μM and 1 μM, respectively. […] The effects of both compound 3 and compound 65 were reversible, with proliferation ceasing within 5 days of compound withdrawal (FIG. 8B). Therefore, compound 3 (FIG. 3G) and compound 65 (Goldberg et al., 2009) (FIG. 3H) are both capable of inducing bona fide cardiomyocyte proliferation in mature hCOs without adversely affecting contractile properties.

Experiment [2] relates to 2D hPSC-CM. In words: 2D hPSC-CM culture, Ki-67 image cytometry (proliferation, number, size). The experiment is classed as cell-based, human. Particulars: 24 h, 0.5 M mevalonic acid 5-phosphate, 20 μM GGPP, 20 μM FPP, 20 μM squalene. The protocol:
Day 15 dissociated differentiation cultures were plated at 100,000 cells/cm2 in 0.1% gelatin coated 96-well tissue culture plates in CTRL medium. For 3 day incubation experiments, after 2 days of culture in CTRL medium, cells were then treated with 10 μM simvastatin in maturation medium for a further 3 days. For 1 day incubation experiments, after 1 day of culture in CTRL medium, cells were treated with 10 μM simvastatin, 0.5 M (±)-Mevalonic acid 5-phosphate lithium salt hydrate, 20 μM geranylgeranyl pyrophosphate, 20 μM farnesyl pyrophosphate and/or 20 μM squalene in maturation medium for a further day.
hCOs were fixed for 10 min with 1% paraformaldehyde (Sigma) at room temperature and washed 3× with PBS, after which they were incubated with primary antibodies (see Star Methods Table) in Blocking Buffer, 5% FBS and 0.2% Triton-X-100 (Sigma) in PBS for 1-2 hours at room temperature. Cells were then washed in Blocking Buffer 2× for 3 min and subsequently incubated with secondary antibodies (see Star Methods Table) and Hoechst33342 (1:1000) for 1 hour at room temperature. They were washed in Blocking Buffer 2× and imaged.
For screening hCOs were imaged using a Leica DMi8 high content imaging microscope for in situ imaging. Custom batch processing files were written in Matlab R2013a (Mathworks) to analyse the number of cardiomyocytes, identify the nuclei of proliferating (Ki-67+) cardiomyocytes and determine the average size of the cardiomyocytes, and export the batch data to an Excel (Microsoft) spreadsheet.
Initial experiments were performed in immature proliferative 2D hPSC-CM (FIG. 6A) using high content imaging (FIG. 6B) and image cytometry analysis (FIG. 13A). HMGCR mediated production of cholesterol metabolites was inhibited with 10 μM simvastatin for 3 days.
In order to determine which metabolites in the mevalonate pathway are critical for proliferation, we performed experiments over 24 hours to enable more precise control of metabolites and to measure the primary effects of the manipulations. In these experiments, the mevalonate pathway was inhibited using 10 μM simvastatin, and then different metabolites were provided within the medium (highlighted in red in FIG. 6F).

The test system of experiment [3] is mature hCO. In words: single organoid quantitative proteomics of mature hCO. The experiment is classed as cell-based, human. As to conditions: mature hCO proteomics. The protocol:
Single hCO were washed 2× in PBS and snap frozen and stored at −80° C. Tissues were lysed in by tip-probe sonication in 1% SDS containing 100 mM Tris pH 8.0, 10 mM tris(2-carboxyethyl)phosphine, 40 mM 2-chloroacetamide and heated to 95° C. for 5 min. Proteins were purified using a modified Single-Pot Solid-Phase-enhanced Sample Preparation (SP3) strategy (Hughes et al., 2014). Briefly, Proteins were bound to Sera-Mag carboxylate coated paramagnetic beads in 50% acetonitrile containing 0.8% formic acid (v/v) (ThermoFisher Scientific). The beads were washed twice with 70% ethanol (v/v) and once with 100% acetonitrile. Proteins were digested on the beads in 100 mM Tris pH 7.5 containing 10% 2,2,2-Trifluoroethanol overnight at 37° C. with 200 ng of sequencing grade LysC (Wako Chemicals) and trypsin (Sigma). Beads were removed and peptides acidified to 1% trifluoroacetic acid prior to purification by styrene divinyl benzene-reversed phase sulfonated solid phase extraction microcolumns. Peptides were spiked with iRT peptides (Biognosys) and analysed on an Easy-nLC1200 coupled to a Q-Exactive HF in positive polarity mode. Peptides were separated using an in-house packed 75 μm×50 cm pulled column (1.9 μm particle size, C18AQ; Dr Maisch) with a gradient of 2-35% acetonitrile containing 0.1% FA over 120 min at 300 nL/min at 60° C. The instrument was operated in data-independent acquisition (DIA) mode essentially as described previously (Bruderer et al., 2017). Briefly, an MS1 scan was acquired from 350-1650 m/z (120,000 resolution, 3e6 AGC, 50 ms injection time) followed by 20 MS/MS variable sized isolation windows with HCD (30,000 resolution, 3e6 AGC, 27 NCE). A spectral library was created by fractionating a pooled mix of peptides from 10 separate hCO on an inhouse packed 320 μm×25 cm column (3 μm particle size, BEH; Waters) with a gradient of 2-40% acetonitrile containing 10 mM ammonium formate over 60 min at 6 μL/min using an Agilent 1260 HPLC. A total of 12 concatenated fractions were analysed using the identical LC-MS/MS conditions above except the instrument was operated in data-dependent acquisition (DDA) mode. Briefly, an MS1 scan was acquired from 350-1650 m/z (60,000 resolution, 3e6 AGC, 50 ms injection time) followed by 20 MS/MS with HCD (1.4 m/z isolation, 15,000 resolution, 1e5 AGC, 27 NCE). DDA data were processed with Andromeda in MaxQuant v1.5.8.3 (Cox and Mann, 2008) against the human UniProt database (January 2016) using all default settings with peptide spectral matches and protein false discovery rate (FDR) set to 1%. DIA data were processed with Spectronaut v11 (Bruderer et al., 2015) using all default settings with precursor and protein FDR set to 1% and quantification performed at MS2.
Proteomic data were Log 2 transformed and median normalised. Removal of unwanted variation method (RUV) was applied to remove any batch effects (Gagnon-Bartsch et al., 2013). Differential abundance was determined with two sample t-tests with FDR-based multiple hypothesis testing correction. GO analysis was performed with DAVID v6.8 and gene ontology terms from BP_FAT (Huang da et al., 2009) and heat-maps and hierarchical clustering was performed using GENE-E (Broad Institute).
In order to determine the biological processes driving the pro-proliferative effects of our hit compounds, we performed RNA-sequencing (RNA-seq) and single organoid quantitative proteomics (FIG. 4A). These analyses were performed on hCOs treated with compounds 3, 63 and 65 at concentrations of 3 μM, 0.3 μM and 1 μM, respectively. RNA-seq for hCO treated with compounds 3 and 65 clustered distinctly in principal component analysis (FIG. 4B) and regulated a total of 239 and 207 genes (FIG. 9A), respectively.

Experiment [4] has as its system adult rodent cardiomyocyte. Particulars: Mohamed et al., 2018; cited from earlier work.
In experiment [5] the test system is kinases. Particulars: Fan et al., 2016; cited from earlier work.

Structures can show the parent of a compound that is named as a salt.

Consider `CC(O)(CCOP(=O)(O)O)CC(=O)O` (racemic) [mevalonate, (±)-Mevalonic acid 5-phosphate lithium salt hydrate, reference compound], for which the “proliferation in mature hCO” value in experiment [1] (0.5 mM, 2 days) was “induces proliferation”. The “rescue of proliferation under 10 μM simvastatin” value (“rescue of proliferation” for short) in experiment [2] was “rescued proliferation”. As for `Cc1c[nH]c(-c2cnc(NCCNc3ccc(C#N)cn3)nc2-c2ccc(Cl)cc2Cl)n1` [CHIR99021, reference compound], the “proliferation signature proteins (cell cycle network, mevalonate enzymes, nuclear transporters)” value in experiment [3] is listed as “only the “cell cycle network” proteins were induced”. For the same compound, in experiment [1] (5 μM CHIR99021 or 1 μM compound 51 alone), the “proliferation in mature hCO, compound individually” value was “failed to activate proliferation individually”. With `NC(=O)c1ccc(-c2nc(-c3ccc4c(c3)OCO4)c(-c3ccccn3)[nH]2)cc1` [SB431542], the pro-proliferative activity alone entry in experiment [4] is reported as “not sufficient”. Regarding `CN1C(=O)c2sccc2N(C)c2nc(Nc3ccc(S(N)(=O)=O)cc3)ncc21` [XMU-MP-1, reference compound], the “off-target effects on cell cycle proteins” value in experiment [5] was “PLK4 and AURKB”. Also, the “proliferation in mature hCO in combination with GSK3 inhibition (Ki-67 intensity)” value in experiment [1] (5 μM CHIR99021 with 1 μM compound 51 or 1 μM XMU-MP-1) is “synergistic effect on proliferation”. Take `CC(C)=CCC/C(C)=C/CC/C(C)=C/COP(=O)(O)OP(=O)(O)O` [farnesyl pyrophosphate]: the “rescue of proliferation” value in experiment [2] is given as “incapable of rescuing proliferation”.

Take `CC(C)=CCC/C(C)=C/CC/C(C)=C/CC/C(C)=C/COP(=O)(O)OP(=O)(O)O` [geranylgeranyl pyrophosphate]: the “rescue of proliferation” value in experiment [2] is given as “rescued proliferation”.

For `CC(C)=CCC/C(C)=C/CC/C(C)=C/CC/C=C(\C)CC/C=C(\C)CCC=C(C)C` [squalene], the “rescue of proliferation” value in experiment [2] is given as “not”.

These data come from patent publication US20220187282A1, “CARDIOMYOCYTE PROLIFERATION” (The Council of the Queensland Institute of Medical Research, priority 2019, published 2022).
